ChEMBL document CHEMBL1147258, “Cytochalasins Z4, Z5, and Z6, three new 24-Oxa[14]cytochalasans produced by Phoma exigua var. heteromorpha” (J Nat Prod, 2003)
Calls of active or inactive are those of the source. No cut-off for these calls is given here.

Key:
Solanum lycopersicum = experiment: Herbicidal activity against tomato seedlings assessed as inhibition of rootlet elongation at 100 uM; type: functional
Artemia = experiment: (§1) Toxicity in brine shrimp assessed as mortality of larvae at 100 uM; type: organism-based; conditions: in vivo, 100 µM
[1] = as §1; type: organism-based; conditions: artemia, in vivo; read-out: Activity

SMILES	inhibition at 100 µM (Solanum lycopersicum) [%]	Activity (Artemia)	Activity (Solanum lycopersicum)	mortality at 100 µM [1] [%]
C[C@H]1C/C=C/[C@H]2[C@@H]3O[C@]3(C)[C@@H](C)[C@H]3[C@H](Cc4ccccc4)NC(=O)[C@]32OC(=O)/C=C/CC(O)CC1 (stereo partly specified) [CYTOCHALASIN Z6]	30	Non-toxic	–	–
C=C1[C@@H](C)[C@H]2[C@H](Cc3ccccc3O)NC(=O)[C@]23OC(=O)/C=C/[C@H](O)CCC[C@@H](C)C/C=C/[C@H]3[C@@H]1O [CYTOCHALASIN Z4]	–	Non-toxic	inactive	–
C=C1[C@@H](C)[C@H]2[C@H](Cc3ccc(O)cc3)NC(=O)[C@]23OC(=O)/C=C/[C@H](O)CCC[C@@H](C)C/C=C/[C@H]3[C@@H]1O [CYTOCHALASIN Z5]	–	–	inactive	21
